What was measured:
Assay in all cases: Test B pre-/postemergence plant response
Format in all cases: in vivo
[1] = system: Italian ryegrass (Lolium multiflorum)
How it was run: (§1)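 Ratings reflect visual comparison with untreated controls 13 to 15 days after application, from 0 (no effect) to 100 (complete control). Application was preemergence to seeded loam/sand soil or postemergence to 1- to 4-leaf plants, with compound in a non-phytotoxic, surfactant-containing solvent.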

[2] = system: Surinam grass (Brachiaria decumbens)
How it was run: as §1

[3] = system: bermudagrass (Cynodon dactylon)
How it was run: as §1

[4] = system: blackgrass (Alopecurus myosuroides)
How it was run: as §1

corn (Zea mays) = system: corn (Zea mays)
How it was run: as §1

[5] = system: downy bromegrass (Bromus tectorum)
How it was run: as §1

[6] = system: giant foxtail (Setaria faberii)
How it was run: as §1

[7] = system: green foxtail (Setaria viridis)
How it was run: as §1

[8] = system: lambsquarters (Chenopodium album)
How it was run: as §1

[9] = system: large crabgrass (Digitaria sanguinalis)
How it was run: as §1

[10] = system: morningglory (Ipomoea coccinea)
How it was run: as §1

[11] = system: woolly cupgrass (Eriochloa villosa)
How it was run: as §1

[12] = system: yellow nutsedge (Cyperus esculentus)
How it was run: as §1

[13] = Postemergence, 31 g ai/ha, scale 0 to 100 (0 no effect, 100 complete control)
[14] = Postemergence, 62 g ai/ha, scale 0 (no effect) to 100 (complete control), 13 to 15 days
[15] = Postemergence, 125 g ai/ha, visual rating after 13 to 15 days, scale 0 (no effect) to 100 (complete control)
[16] = Postemergence, 250 g ai/ha, scale 0 to 100
[17] = Postemergence, 125 g ai/ha, scale 0 to 100 (0 no effect, 100 complete control), 13 to 15 days
[18] = 250 g ai/ha, Preemergence, 0 to 100 scale
[19] = Preemergence, 31 g ai/ha, scale 0 to 100 (0 no effect, 100 complete control)
[20] = Preemergence, 62 g ai/ha, scale 0 to 100 (0 no effect, 100 complete control)
[21] = Preemergence, 125 g ai/ha, 0 to 100 scale

SMILES: Cc1ccc(-n2c(-c3ccccc3)ncc(C(=O)C3=C(O)CCCC3=O)c2=O)cc1 [Compound 8]
- Plant response rating, Ryegrass, Italian [1, 13]: 20
- Plant response rating, Ryegrass, Italian [1, 14]: 20
- Plant response rating, Ryegrass, Italian [1, 15]: 30
- Ryegrass, Italian plant response rating [1, 16]: 50
- Plant response rating, Surinam Grass [2, 13]: 60
- Plant response rating, Surinam Grass [2, 14]: 65
- Plant response rating, Surinam Grass [2, 15]: 75
- Surinam Grass plant response rating [2, 16]: 80
- Plant response rating, Bermudagrass [3, 13]: 60
- Plant response rating, Bermudagrass [3, 14]: 85
- Plant response rating, Bermudagrass [3, 17]: 95
- Bermudagrass plant response rating [3, 16]: 100
- Plant response rating, Blackgrass [4, 13]: 5
- Plant response rating, Blackgrass [4, 14]: 10
- Plant response rating, Blackgrass [4, 15]: 10
- Blackgrass plant response rating [4, 16]: 20
- Plant response rating, Corn (corn (Zea mays); [13]): 15
- Plant response rating, Corn (corn (Zea mays); [14]): 65
- Plant response rating, Corn (corn (Zea mays); [15]): 75
- Corn plant response rating (corn (Zea mays); [16]): 80
- Plant response rating, Bromegrass, Downy [5, 13]: 5
- Plant response rating, Bromegrass, Downy [5, 14]: 5
- Plant response rating, Bromegrass, Downy [5, 15]: 10
- Bromegrass, Downy plant response rating [5, 16]: 10
- Plant response rating, Foxtail, Giant [6, 13]: 98
- Plant response rating, Foxtail, Giant [6, 14]: 100
- Plant response rating, Foxtail, Giant [6, 15]: 100
- Foxtail, Giant plant response rating [6, 16]: 100
- Plant response rating, Foxtail, Green [7, 13]: 40
- Plant response rating, Foxtail, Green [7, 14]: 70
- Plant response rating, Foxtail, Green [7, 15]: 85
- Foxtail, Green plant response rating [7, 16]: 95
- Plant response rating, Lambsquarters [8, 13]: 95
- Plant response rating, Lambsquarters [8, 14]: 100
- Plant response rating, Lambsquarters [8, 15]: 100
- Lambsquarters plant response rating [8, 16]: 100
- Plant response rating, Crabgrass, Large [9, 13]: 70
- Plant response rating, Crabgrass, Large [9, 14]: 85
- Plant response rating, Crabgrass, Large [9, 15]: 90
- Crabgrass, Large plant response rating [9, 16]: 100
- Plant response rating, Morningglory [10, 13]: 75
- Plant response rating, Morningglory [10, 14]: 90
- Plant response rating, Morningglory [10, 15]: 100
- Morningglory plant response rating [10, 16]: 100
- Plant response rating, Cupgrass, Woolly [11, 13]: 75
- Plant response rating, Cupgrass, Woolly [11, 14]: 80
- Plant response rating, Cupgrass, Woolly [11, 15]: 90
- Cupgrass, Woolly plant response rating [11, 16]: 100
- Plant response rating, Nutsedge, Yellow [12, 13]: 65
- Plant response rating, Nutsedge, Yellow [12, 14]: 70
- Plant response rating, Nutsedge, Yellow [12, 15]: 80
- Nutsedge, Yellow plant response rating [12, 16]: 85

SMILES: Cc1ccccc1-n1c(-c2ccccc2)ncc(C(=O)C2=C(O)CCCC2=O)c1=O [Compound 12]
- Plant response rating, Ryegrass, Italian [1, 18]: 0
- Plant response rating, Ryegrass, Italian [1, 13]: 0
- Plant response rating, Ryegrass, Italian [1, 14]: 0
- Plant response rating, Ryegrass, Italian [1, 15]: 5
- Ryegrass, Italian plant response rating [1, 16]: 5
- Plant response rating, Ryegrass, Italian [1, 19]: 0
- Plant response rating, Ryegrass, Italian [1, 20]: 0
- Ryegrass, Italian plant response rating [1, 21]: 0
- Plant response rating, Surinam Grass [2, 18]: 100
- Plant response rating, Surinam Grass [2, 13]: 25
- Plant response rating, Surinam Grass [2, 14]: 55
- Plant response rating, Surinam Grass [2, 15]: 65
- Surinam Grass plant response rating [2, 16]: 85
- Plant response rating, Surinam Grass [2, 19]: 35
- Plant response rating, Surinam Grass [2, 20]: 60
- Surinam Grass plant response rating [2, 21]: 95
- Plant response rating, Bermudagrass [3, 18]: 100
- Plant response rating, Bermudagrass [3, 13]: 65
- Plant response rating, Bermudagrass [3, 14]: 85
- Plant response rating, Bermudagrass [3, 17]: 98
- Bermudagrass plant response rating [3, 16]: 100
- Plant response rating, Bermudagrass [3, 19]: 100
- Plant response rating, Bermudagrass [3, 20]: 100
- Bermudagrass plant response rating [3, 21]: 100
- Plant response rating, Blackgrass [4, 18]: 10
- Plant response rating, Blackgrass [4, 13]: 10
- Plant response rating, Blackgrass [4, 14]: 10
- Plant response rating, Blackgrass [4, 15]: 10
- Blackgrass plant response rating [4, 16]: 20
- Plant response rating, Blackgrass [4, 19]: 0
- Plant response rating, Blackgrass [4, 20]: 0
- Blackgrass plant response rating [4, 21]: 5
- Plant response rating, Corn (corn (Zea mays); [18]): 75
- Plant response rating, Corn (corn (Zea mays); [13]): 25
- Plant response rating, Corn (corn (Zea mays); [14]): 30
- Plant response rating, Corn (corn (Zea mays); [15]): 45
- Corn plant response rating (corn (Zea mays); [16]): 75
- Plant response rating, Corn (corn (Zea mays); [19]): 0
- Plant response rating, Corn (corn (Zea mays); [20]): 0
- Corn plant response rating (corn (Zea mays); [21]): 15
- Plant response rating, Bromegrass, Downy [5, 18]: 0
- Plant response rating, Bromegrass, Downy [5, 13]: 5
- Plant response rating, Bromegrass, Downy [5, 14]: 10
- Plant response rating, Bromegrass, Downy [5, 15]: 20
- Bromegrass, Downy plant response rating [5, 16]: 20
- Plant response rating, Bromegrass, Downy [5, 19]: 0
- Plant response rating, Bromegrass, Downy [5, 20]: 0
- Bromegrass, Downy plant response rating [5, 21]: 0
- Plant response rating, Foxtail, Giant [6, 18]: 100
- Plant response rating, Foxtail, Giant [6, 13]: 75
- Plant response rating, Foxtail, Giant [6, 14]: 90
- Plant response rating, Foxtail, Giant [6, 15]: 98
- Foxtail, Giant plant response rating [6, 16]: 98
- Plant response rating, Foxtail, Giant [6, 19]: 0
- Plant response rating, Foxtail, Giant [6, 20]: 20
- Foxtail, Giant plant response rating [6, 21]: 70
- Plant response rating, Foxtail, Green [7, 18]: 80
- Plant response rating, Foxtail, Green [7, 13]: 40
- Plant response rating, Foxtail, Green [7, 14]: 60
- Plant response rating, Foxtail, Green [7, 15]: 70
- Foxtail, Green plant response rating [7, 16]: 70
- Plant response rating, Foxtail, Green [7, 19]: 0
- Plant response rating, Foxtail, Green [7, 20]: 0
- Foxtail, Green plant response rating [7, 21]: 40
- Plant response rating, Lambsquarters [8, 18]: 100
- Plant response rating, Lambsquarters [8, 13]: 80
- Plant response rating, Lambsquarters [8, 14]: 85
- Plant response rating, Lambsquarters [8, 15]: 98
- Lambsquarters plant response rating [8, 16]: 98
- Plant response rating, Lambsquarters [8, 19]: 100
- Plant response rating, Lambsquarters [8, 20]: 100
- Lambsquarters plant response rating [8, 21]: 100
- Plant response rating, Crabgrass, Large [9, 18]: 100
- Plant response rating, Crabgrass, Large [9, 13]: 65
- Plant response rating, Crabgrass, Large [9, 14]: 75
- Plant response rating, Crabgrass, Large [9, 15]: 80
- Crabgrass, Large plant response rating [9, 16]: 90
- Plant response rating, Crabgrass, Large [9, 19]: 0
- Plant response rating, Crabgrass, Large [9, 20]: 90
- Crabgrass, Large plant response rating [9, 21]: 100
- Plant response rating, Morningglory [10, 18]: 100
- Plant response rating, Morningglory [10, 13]: 15
- Plant response rating, Morningglory [10, 14]: 60
- Plant response rating, Morningglory [10, 15]: 70
- Morningglory plant response rating [10, 16]: 95
- Plant response rating, Morningglory [10, 19]: 40
- Plant response rating, Morningglory [10, 20]: 55
- Morningglory plant response rating [10, 21]: 85
- Plant response rating, Cupgrass, Woolly [11, 18]: 85
- Plant response rating, Cupgrass, Woolly [11, 13]: 55
- Plant response rating, Cupgrass, Woolly [11, 14]: 60
- Plant response rating, Cupgrass, Woolly [11, 15]: 70
- Cupgrass, Woolly plant response rating [11, 16]: 80
- Plant response rating, Cupgrass, Woolly [11, 19]: 0
- Plant response rating, Cupgrass, Woolly [11, 20]: 10
- Cupgrass, Woolly plant response rating [11, 21]: 75
- Plant response rating, Nutsedge, Yellow [12, 18]: 90
- Plant response rating, Nutsedge, Yellow [12, 13]: 15
- Plant response rating, Nutsedge, Yellow [12, 14]: 55
- Plant response rating, Nutsedge, Yellow [12, 15]: 65
- Nutsedge, Yellow plant response rating [12, 16]: 80
- Plant response rating, Nutsedge, Yellow [12, 19]: 25
- Plant response rating, Nutsedge, Yellow [12, 20]: 60
- Nutsedge, Yellow plant response rating [12, 21]: 75

From patent US8952024B2, “Herbicidal pyrimidone derivatives” (E I du Pont de Nemours and Company, priority 2009, dated 2015)
